Experimental data published in US20260242490A1, “METHODS OF TREATING NAFLD AND NASH” (CytoDyn Inc., priority 2022, published 2026).
“And” between values parts separate entries of the source, which are not always exact repeats. Equal values may be shown once. Marks after values point to notes of the source that are not given here.

Tests used:
[1] = test system: fibro-inflammatory activity in the liver; test: CDI-NASH-01 clinical study, MRI cT1; format: in vivo, human; conditions: 350 mg SC weekly, all patients (n = 22), change baseline to week 14
CCR5-expressing cells = conditions: cited from earlier work
[2] = test system: NSG mice fed a high fat NASH-inducing diet; test: Humanized NSG mice on high fat NASH-inducing diet, Oil Red O liver sections; format: in vivo, mouse
Experimental: 16 male were first humanized by intravenous inoculation with normal human umbilical cord blood cells. […] Mice were switched to a high fat (52%), high cholesterol (1.25%) diet. (FPC diet: fructose, palmitate, cholesterol, trans-fat; Envigo-Teklad TD.160785). […] Mice were euthanized at 16 weeks after initiation of the high fat, high cholesterol diet.
Liver sections were analyzed for indicators of NAFLD. […] Regions of interest were identified in micrographs and digitized using an Aperio AT2 slide scanner (Leica Biosystems), then analyzed using QuPath v0.2.01 imaging software. […] Percent positivity in IgG treated group was 9.751±1.789. […] Student's t test p=0.014. Steatosis was numerically scored following a semi-quantitative pathological standard.

CCR5 = CCR5 (Homo sapiens, UniProt P51681); conditions: CCR5+ cells; cited from earlier work
serum cK18 and K18 = test: CDI-NASH-01 clinical study, M30-M65 ELISA; format: in vivo, human
Description: (§1) The secondary efficacy objective was the change from baseline in fibro-inflammatory activity in the liver as assessed by cT1 (corrected T1) at week 14. cT1 is obtained by multiparametric magnetic resonance imaging of the liver and is a quantitative metric for assessing a composite of liver inflammation and fibrosis, expressed in milliseconds (msec). Additional objectives were change from baseline in LFT, chemokine and cytokine levels and key biomarkers of inflammation to week 14. In particular, change in serum cK18 and K18 by M30-M65 ELISA was assessed at week 14.

HIV-1 = conditions: in vitro and hu-PBL-SCID mouse model; at concentrations that do not affect CCR5 chemokine receptor activity; cited from earlier work
[3] = CDI-NASH-01 clinical study, safety and tolerability; format: in vivo, human
Description: The secondary objective of this study was to assess the safety and tolerability of leronlimab in adult patients diagnosed with NASH compared to placebo.
(See FIG. 3 and FIG. 4.) There was no grade 3 or higher drug related treatment emergent adverse event.

[4] = test system: LFT, chemokine and cytokine levels and key biomarkers of inflammation; test: CDI-NASH-01 clinical study, serum analysis of biomarkers; format: in vivo, human
Description: as §1

hepatic fat fraction = test: CDI-NASH-01 clinical study, MRI-PDFF; format: in vivo, human; conditions: for MRI PDFF: change baseline to week 14; for Mean percent change from baseline PDFF: 700 mg SC weekly (n=22), baseline to week 14
Experimental: (§2) Eligible patients included adults aged between 18 to 75 years (inclusive), with evidence of phenotype nonalcoholic steatohepatitis (NASH). […] A stable body weight (±5%) was required during the 6 months prior to screening. Exclusion criteria include but were not limited to HIV, autoimmune hepatitis, excess alcohol use, viral hepatitis, and prior or pending liver transplantation. No patients in the 350 mg study were concomitantly treated with semaglutide, while 18% of patients in the placebo group were concomitantly treated with semaglutide.
(§3) There were 21 patients in cT1 analysis and 22 for PDFF analysis. One patient obtained PDFF at End of Treatment but MRI for cT1 despite repeat was not able to quality (by 3 cuts) so no results for cT1 were obtained on that patient.
The primary efficacy objective of the study was the change from baseline in hepatic fat fraction, assessed by magnetic resonance imaging-derived proton density fat fraction (MRI-PDFF) at week 14.

[5] = test system: fibro-inflammatory activity in the liver; test: CDI-NASH-01 clinical study, MRI cT1; format: in vivo, human; conditions: for Mean change cT1: baseline to week 14; for MRI cT1: change baseline to week 14
Experimental: as §2, §3, §1

[6] = test system: NASH patients by CCR5 haplotype; test: CDI-NASH-01 clinical study, treatment outcome by CCR5 haplotype; format: in vivo, human
Description: CCR5 haplotype was investigated for 5 patients. Haplotypes with very high transcription and thus high cell surface expression of CCR5 include HHE/HHE and HHG1/HHG1. High transcription alleles when combined with a null allele delta 32 or HHG2 will default to the heterozygous allele such that HHE/HHG2 and HHG1/HHG2 would also be high transcribers for CCR5.
CCR5 transcriptional activity and disease progression can be slowed or accelerated. Surface CCR5 expression level also played a part in NASH disease progression and specific CCR5 haplotypes correlated with dose and treatment outcomes.
All patients appeared to benefit from a dose that lowered RANTES (CCL5) levels to approximately zero.

[7] = 700 mg, haplotypes associated with increased CCR5 expression
[8] = 700 mg, patients with increased CCR5 cell surface levels
[9] = 350 mg SC weekly, all patients (n = 22), change baseline to week 14
[10] = 350 mg SC weekly, baseline cT1 ≥ 875 (n = 14), change baseline to week 14
[11] = 350 mg SC weekly, baseline cT1 ≥ 950 (n = 8), change baseline to week 14
[12] = 350 mg, patients with baseline elevated ALT (n=8)
[13] = 350 mg SC weekly, baseline cT1 ≥ 875 (n = 14)
[14] = 350 mg SC weekly, baseline cT1 ≥ 950 (n = 8)
[15] = 700 mg group with genetic haplotypes known to over produce CCR5, post hoc analysis
[16] = placebo patients concomitantly treated with semaglutide (n = 5), change baseline to week 14
[17] = placebo patients concomitantly treated with semaglutide (n = 5)

CCR5, sequence (P51681 whole entry): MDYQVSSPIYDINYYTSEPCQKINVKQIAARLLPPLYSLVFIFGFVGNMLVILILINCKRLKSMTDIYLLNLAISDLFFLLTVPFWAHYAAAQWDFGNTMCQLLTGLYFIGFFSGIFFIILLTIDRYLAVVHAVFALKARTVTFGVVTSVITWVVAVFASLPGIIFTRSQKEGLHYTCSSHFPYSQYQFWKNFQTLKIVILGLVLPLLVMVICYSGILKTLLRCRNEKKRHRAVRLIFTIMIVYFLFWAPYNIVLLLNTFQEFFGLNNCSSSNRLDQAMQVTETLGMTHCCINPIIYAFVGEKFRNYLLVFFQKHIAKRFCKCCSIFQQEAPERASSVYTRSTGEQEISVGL

## leronlimab: humanized IgG4 monoclonal antibody that binds to CCR5; humanized version of murine antibody PA14
[1]
  MRI cT1: significantly reduced
CCR5-expressing cells
  CCR5 surface expression / depletion of CCR5-expressing cells: does not downregulate CCR5 surface expression or deplete CCR5-expressing cells
[2]; 2 mg i.p. twice weekly
  fatty liver development: inhibited
[2]; 2 mg i.p. twice weekly vs IgG
  presence of fat in the liver, Oil Red O stain: markedly reduced
CCR5
  IC50 of CCL5-induced calcium mobilization: 45 µg/mL
Serum cK18 and K18; 350 mg group
  M65 ELISA (cK18 and K18), mean change baseline to week 14: −8.18 U/L
Serum cK18 and K18; 350 mg group, baseline 340.55
  M65 ELISA (cK18 and K18), mean at week 14: 332.4 U/L
Serum cK18 and K18; [7]
  CK18: statistically significant reductions
Serum cK18 and K18; [8]
  M30: statistically significant reductions
  M65: statistically significant reductions
HIV-1
  HIV-1 entry and replication: potently inhibits
[3]; Part 1 (700 mg) and Part 2 (350 mg)
  tolerability: generally well tolerated
[3]; Part 1 and Part 2
  grade 3 or higher drug related treatment emergent adverse event: no
[3]; not associated with discontinuation
  Injection site reaction and mild diarrhea, frequency vs placebo: occurred more frequently
[4]; [9]
  Alpha-2-Mactoglobulin s: 8.96 mg/mL
  Gamma Glutamyl Transferase (GGT) s: −1.3 U/L
[4]; [10]
  Alkaline Phosphatase: −3.16 IU/L
  Apolipoprotein A1S: 9.2 mg/dL
  Aspartate Aminotransferase (AST) s: −5.5 U/L
  CCL2 (Monocyte Chemotactic Protein-1): -95.53 pg/mL
  CCL3 (Macrophage Inflammatory Protein-1 Alpha): −7.14*** pg/mL
  CCL5 (RANTES): −7.8
  CCL11 (Eosinophil Chemotactic Protein): -15.21 pg/mL
  CCL18 (Macrophage Inflammatory Protein-4): −32.1** ng/mL
  EN RAGE (Receptor Advanced Glycation End-Products): −115.50** ng/mL
  IL-1 (Interleukin 1) Beta: 0.00 pg/mL
  IL-6 (Interleukin 6): -0.44 pg/mL
  IL-8 (Interleukin 8): −12.6*** pg/mL
  IR-IRA (Interleukin 1 Receptor Antagonist): −34.79** pg/mL
  TIMP-1 (Tissue Inhibitor Metalloproteinases 1): -17.26 ng/mL
  TNF Receptor 2 (STNFR-2): −2.0*** ng/mL
  VCAM (Vascular Cell Adnhesion Molecule): −94.2*** ng/mL
[4]; [11]
  Alkaline Phosphatase: −7.25* IU/L
  Apolipoprotein A1S: 2.3 mg/dL
  Aspartate Aminotransferase (AST) s: −13.0 U/L
  CCL2 (Monocyte Chemotactic Protein-1): -179.0 pg/mL
  CCL3 (Macrophage Inflammatory Protein-1 Alpha): −8.0*** pg/mL
  CCL5 (RANTES): −25.3
  CCL11 (Eosinophil Chemotactic Protein): -16.25 pg/mL
  CCL18 (Macrophage Inflammatory Protein-4): −48.0** ng/mL
  EN RAGE (Receptor Advanced Glycation End-Products): −169.0* ng/mL
  Gamma Glutamyl Transferase (GGT) s: −6.13 U/L
  IL-1 (Interleukin 1) Beta: 0.00 pg/mL
  IL-6 (Interleukin 6): -0.30 pg/mL
  IL-8 (Interleukin 8): −4.25** pg/mL
  IR-IRA (Interleukin 1 Receptor Antagonist): -26.25 pg/mL
  TIMP-1 (Tissue Inhibitor Metalloproteinases 1): -25.3 ng/mL
  TNF Receptor 2 (STNFR-2): −2.7*** ng/mL
  VCAM (Vascular Cell Adnhesion Molecule): −81.0* ng/mL
[4]; [12]
  ALT, mean change: −29.3 U/L
[4]; 350 mg, patients with baseline elevated ALT (n=8), baseline 83.7
  ALT, mean after treatment: 54.3 U/L
[4]; 700 mg SC weekly
  CCL2 level: balanced or increased levels
  CCL3 level: balanced or increased levels
  CCL11 level: balanced or increased levels
  CCL18 level: balanced or increased levels
[4]; [7]
  Apolipoprotein A1: Improvements
  HDL: strong increase
Hepatic fat fraction; 350 mg SC weekly, all patients (n = 22)
  MRI PDFF: significantly reduced
Hepatic fat fraction; [13]
  MRI PDFF: −4.37% and −4.38* %
Hepatic fat fraction; [14]
  MRI PDFF: −9.39% and −9.27* %
Hepatic fat fraction; [12]
  PDFF change: −18%
Hepatic fat fraction
  Mean percent change from baseline PDFF: +3.75%
Hepatic fat fraction; listed as Leronlimab
  Mean percent change from baseline PDFF: did not reduce
Hepatic fat fraction; [15]
  mean percent PDFF change: −27.9%
Hepatic fat fraction; [7]
  PDFF decrease: 28%
  steatosis: Improvements
[5]; 350 mg SC weekly, all patients
  Mean change cT1: -24.38 ms
[5]; [13]
  MRI cT1: −42.00**
[5]; [14]
  MRI cT1: −68.86**
[5]; 350 mg subgroup with baseline cT1≥875 ms
  Mean change cT1: -42.00 ms
[5]; [12]
  cT1 change: -69 ms
[5]; 700 mg SC weekly
  Mean change cT1: -2.73 ms
[5]; 700 mg SC weekly, listed as Leronlimab
  Mean change cT1: did not reduce
[5]; [15]
  mean cT1 change: -45.4 ms
[6]; 350 mg, haplotypes correlated with low to normal surface expression of CCR5
  treatment effect: benefited
[6]; 700 mg or 350 mg, haplotypes correlated with high surface expression of CCR5, greater at 700 mg
  treatment effect: positive effects
[6]; 700 mg, haplotypes correlated with low to normal surface expression of CCR5
  treatment effect: negative effects

## semaglutide [Placebo + Semaglutide, reference compound]
[4]; [16]
  Alanine Aminotransferase (ALT) s: −3.6 U/L
  Alpha-2-Mactoglobulin s: -11.6 mg/mL
  Apolipoprotein A1 s: -4.0 mg/dL
  Aspartate Aminotransferase (AST) s: −2.8 U/L
  CCL2 (Monocyte Chemotactic Protein-1): -6.00 pg/mL
  CCL3 (Macrophage Inflammatory Protein-1 Alpha): -1.2 pg/mL
  CCL5 (RANTES): 1.2
  CCL11 (Eosinophil Chemotactic Protein): 0.20 pg/mL
  CCL18 (Macrophage Inflammatory Protein-4): 4.80 ng/mL
  High Density Lipoprotein Cholesterol (HDL): -1.0 mg/dL
  IL-6 (Interleukin 6): 0.34 pg/mL
  IR-IRA (Interleukin 1 Receptor Antagonist): 26.6 pg/mL
  TNF Receptor 2 (STNFR-2): 0.52 ng/mL
  VCAM (Vascular Cell Adnhesion Molecule): -35.6 ng/mL
  VEGF (Vascular Endothelian Growth Factor): -11.2 pg/mL
Hepatic fat fraction; [17]
  MRI PDFF: −1.85%
[5]; [17]
  MRI cT1: −4.40
